In publication PMC10525445, “Antitrypanosomal Activity of 1,2,3-Triazole-Based Hybrids Evaluated Using In Vitro Preclinical Translational Models” (Biology, 2023):
“Also recorded” adds a separate entry of the source. Read-outs that look alike come from different tables or passages of the source.

Experiments:
Assay type in all cases: cell-based, Trypanosoma cruzi
[1] = tested on: trypomastigote forms of T. cruzi (Dm28c-Luc); experiment: Trypanocidal activity against trypomastigotes (luciferase luminescence, 24 h); conditions: for Trypomastigotes SI: SI = CC50 of VERO cells/IC50 of trypomastigotes; for increase of activity compared with 1g (times): trypomastigotes
Protocol: (§1) A drug screen was carried out with Trypanosoma cruzi clone Dm28c genetically modified to express luciferase (Dm28c-luc), kindly provided by Dr. Cristina Henriques. The genetically modified T. cruzi clone Dm28c (Dm28c-Luc) has the firefly luciferase gene integrated into the genome, stably expressing the luminescent enzyme. The bioluminescent signal, proportional to the number of parasites, is produced by adding a D-luciferin substrate. Trypomastigotes were harvested from supernatants of VERO cell cultures, infected at a ratio of 10:1 parasite/host cells, 4 days post-infection (4 dpi). Parasites were used for phenotypic drug screening procedures. Luminescent parasites are a reliable and sensitive tool that allows precise quantification of parasite load. The use of genetically modified organisms was approved under license CQB 105/99.
All triazole analogs were analyzed for their biological activity against trypomastigote and intracellular amastigote forms of T. cruzi (Dm28c-Luc). Trypomastigotes (1.0 × 10^6 parasites/well) were incubated for 24 h at 37 °C with triazole derivatives and Bz at concentrations ranging from 0.04 to 100 µM. Luciferin (300 µg/mL), a luciferase substrate, was added to parasite suspensions to evaluate trypomastigotes viability. The luminescent signal was measured using a Glomax microplate reader. A maximal DMSO concentration (0.1%) was used as the negative control. The inhibitory concentration 50 (IC50) and 90 (IC90) against T. cruzi, which reduces the number of parasites by 50% and 90%, respectively, was calculated using linear regression. The selectivity index (SI), a ratio that measures the window between toxicity in mammalian cells and anti-T. cruzi activity (SI = CC50/IC50), was also determined.

[2] = tested on: intracellular amastigote of T. cruzi Dm28c-Luc; experiment: Drug combination assay with Bz (isobologram); conditions: for xΣFICI (average of the sums of fractional inhibitory concentration index): combination with Bz, six ratios, additive xΣFICI > 0.5–1; for interaction with Bz: isobologram, intracellular amastigote
Protocol: The combination of promising candidates and Bz was performed using an isobologram method. Initial concentrations were determined by ensuring that IC50 concentrations of monotherapy compounds remained close to half in serial dilutions (1:3–6 concentrations). Solutions at the initial concentration of each compound were prepared and then mixed in proportions of 5:0, 4:1, 3:2, 2:3, 1:4, and 0:5 (v/v) of promising compounds and Bz, respectively. The anti-T. cruzi activity for the serial dilutions (1:3) of the ratios was then analyzed, as previously described. The IC50 values for each combination were used to determine the fractional inhibitory concentration index (FICI); thus, FICI(A) = IC50(A) in combination/IC50(A) alone and FICI(B) = IC50(B) in combination/IC50(B) alone. In addition, the sum of the FICIs for each proportion (∑FICI = FICI(A) + FICI(B)) and the average of the sums for the FICIs (xΣFICI) were calculated. The FICI values were plotted on an isobologram graph. The xΣFICI was applied as a classification criterion for interactions: as synergistic xΣFICI ≤ 0.5, additive xΣFICI > 0.5–1, without interaction xΣFICI > 1–4, and antagonistic for xΣFICI > 4.

[3] = tested on: intracellular amastigote forms of T. cruzi (Dm28c-Luc); experiment: Activity against intracellular amastigotes in infected VERO cells (72 h); conditions: for Intracellular Amastigotes SI: SI = CC50 of VERO cells/IC50 of intracellular amastigotes; for IC50 / IC90: infected VERO cells, 72 h, mean ± SD; for IC50: read-out: Trypanocidal Activity Intracellular Amastigotes IC50; for IC90: read-out: Trypanocidal Activity Intracellular Amastigotes IC90
Protocol: as §1
Activity against intracellular amastigotes was determined in cultures of VERO cells infected by T. cruzi (24 h), as previously described. Briefly, infected cultures were treated for 72 h at 37 °C with different concentrations of triazole derivatives (0.04–100 µM). Then, the culture supernatant was removed, and the viability of the intracellular parasites was evaluated after adding luciferin (300 µg/mL) to the cell monolayer followed by reading using the microplate reader. Anti-T. cruzi activity (IC50 and IC90) and SI values were determined. All experimental assays were performed at least 3 times in duplicate.

[4] = tested on: T. cruzi Dm28c-Luc in 3D cardiac spheroids; experiment: Drug efficacy in T. cruzi-infected 3D cardiac spheroids; conditions: 72 h, 15 to 30 times the IC50, 1f maximum 50 µM
Protocol: Primary heart muscle cell cultures were obtained from fetuses of female Swiss Webster mice, as previously described. After heart removal and ventricle fragmentation, tissue fragments were dissociated in a trypsin and collagenase type II (Worthington Biochemical Corporation, Lakewood, USA) dissociation solution. For two-dimensional (2D) cultures, the isolated cardiac cells were seeded at a density of 5 × 10^4 cells/well in gelatin (0.1%)-coated 96-well white culture plates. Three-dimensional (3D) cardiac spheroids were obtained after seeding isolated heart muscle cells at a density of 2.5 × 10^4 cells/well in an agarose (1%)-coated 96-well U-bottom plate, as described in [35]. Heart muscle cells cultures were cultivated in Dulbecco’s modified Eagle medium (DMEM) supplemented with 7% FBS, 2.5 mM CaCl2, 2% embryo extract, and 1 mM L-glutamin and maintained at 37 °C in a humidified atmosphere of 5% CO2. All procedures with animals were approved by the Animal Care and Use Committee at the Oswaldo Cruz Institute (license L-017/2022).
A three-dimensional cardiac model was applied as a cell culture platform to test the efficacy of promising candidates. […] Microtissues were also incubated with DMSO (0.1%) and Bz (100 µM) as negative and positive controls, respectively. After luciferin addition (300 µg/mL), the luminescence was measured, and the data were expressed as arbitrary luminescence units (ALU).

[5] = tested on: T. cruzi (Dm28c-Luc)-infected VERO cells; experiment: Short-term washout assay (3 days treatment, 3 days without compound)
Protocol: A washout assay was performed to evaluate the capacity of the promising candidates to eliminate all parasites. Thus, VERO cells, seeded in 96-well plates at a density of 1.5 × 10^4 cells/well, were infected with T. cruzi (Dm28c-Luc) at a 10:1 parasite–host cell ratio (24 h). Two treatment schedules were performed: 3 days with 30, 50, and 100 µM concentrations and 10 days with 30 and 60 times the IC50 concentrations. After treatment, the cultures were washed with PBS and kept for the same period in RPMI 1640 medium supplemented with 10% FBS without compound pressure. The culture medium was changed every 3 or 4 days during the time course, and the supernatant was harvested for luminescence reading after luciferin (300 µg/mL) addition. At the endpoint, the monolayers were also evaluated for parasite load. The luminescent signal was read using a Glomax reader. Bz (100 µM) and DMSO (≤1%) were used as positive and negative controls, respectively.

[6] = Trypanosoma cruzi, Dm28c-Luc, 24 h, mean ± SD
[7] = Trypanosoma cruzi, Dm28c-Luc, 24 h, mean ± SD, read-out: Trypanocidal Activity Trypomastigotes IC50
[8] = Trypanosoma cruzi, Dm28c-Luc, 24 h, read-out: pIC50 against trypomastigotes (converted)

Row | Compound | Trypomastigotes SI [1] | IC90 [1, 6] [µM] | IC50 [1, 7] [µM] | IC50 [1, 8] [µM] | increase of activity compared with 1g (times) [1] [times] | xΣFICI (average of the sums of fractional inhibitory concentration index) [2] | interaction with Bz [2] | Intracellular Amastigotes SI [3] | IC50 ([3]; Trypanosoma cruzi) [µM] | IC90 ([3]; Trypanosoma cruzi) [µM] | parasite load in 3D cardiac microtissue (luminescence) [4] | also measured
1 | COc1ccc(-n2cc(-c3ccccc3)nn2)cc1 [Triazole 1d, 1-(4-Methoxyphenyl)-4-phenyl-1H-1,2,3-triazole] | >2380 | 2.9 ± 0.16 | 0.21 ± 0.03 | 0.214 | 11 | 0.93 | additive effect | >152 | 3.27 ± 0.9 | > 100 | significantly inhibited the viability of the parasites; also recorded: significantly reduce the parasite load | fold reduction in parasite load compared to untreated cultures ([5]; 100 µM): approximately 10 fold; parasite resurgence ([5]; 100 µM): did not prevent parasite resurgence
2 | 4-Phenyl-1-(m-tolyl)-1H-1,2,3-triazole [Triazole 1f] | 70.5 |  |  |  | 1.8 | 0.88 | additive effect | 24.8 |  |  | significantly inhibited the viability of the parasites; also recorded: significantly reduce the parasite load | pIC50 against trypomastigotes ([1]; Dm28c-Luc, 24 h): 5.91; IC90 ([1]; Dm28c-Luc, 24 h, mean ± SD): 3.68 ± 0.6 µM; IC50 ([1]; Dm28c-Luc, 24 h, mean ± SD, read-out: Trypanocidal Activity Trypomastigotes IC50): 1.23 ± 0.24 µM; IC50 [3]: 3.5 ± 0.39 µM; IC90 [3]: 30.4 ± 0.4 µM; effect on parasite load ([5]; 30 µM): did not significantly reduce the parasite load; fold reduction in parasite load compared to untreated cultures ([5]; 50 µM): ~12 fold; parasite resurgence ([5]; 50 µM): did not prevent parasite resurgence
3 | c1ccc(-c2cn(-c3ccccc3)nn2)cc1 [Triazole 1g, 1-(4-Diphenyl)-1H-1,2,3-triazole] | >219 | > 100 | 2.28 ± 0.34 | 2.29 |  | 0.90 | additive effect | >80.6 | 6.2 ± 1.06 | > 100 | did not effectively decrease the total number of viable intracellular parasites | effect on parasite load / infection progression ([5]; 100 µM): did not significantly reduce the parasite load
